Results on 24 molecules are retold here after US20220298138A1, “ENZYME INHIBITORS” (KALVISTA PHARMACEUTICALS LIMITED, priority 2019, published 2022).

The assay concerns the target T1, Human Factor XIIa (Homo sapiens, UniProt P00748).
T1 construct: purchased Enzyme Research Laboratories
T1 sequence (P00748 373-615 limits assumed): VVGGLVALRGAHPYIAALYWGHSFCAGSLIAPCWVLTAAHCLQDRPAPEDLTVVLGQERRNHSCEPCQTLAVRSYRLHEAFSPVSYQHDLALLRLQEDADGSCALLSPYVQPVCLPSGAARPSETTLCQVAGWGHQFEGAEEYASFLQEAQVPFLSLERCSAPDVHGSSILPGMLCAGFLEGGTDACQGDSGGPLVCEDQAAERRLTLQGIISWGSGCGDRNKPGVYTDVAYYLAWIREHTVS
The experiment in a line: Factor XIIa inhibitory activity in vitro (fluorogenic substrate H-DPro-Phe-Arg-AFC). It counts as biochemical. Particulars: 25° C., class symbols, read-out: Human FXIIa IC50. Put shortly: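 Enzyme incubated at 25° C with fluorogenic substrate H-DPro-Phe-Arg-AFC and a range of compound concentrations. Residual activity taken as initial reaction rate from […], giving IC50.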
For orientation: IC50 means the concentration that inhibits the measured activity by half. Turning to `Nc1nccc2cc(CNC(=O)[C@H](Cc3ccc(F)c(F)c3)NC(=O)C(F)F)ccc12` [Example 0.66], the IC50 was in the range of 3 to 10 µM.

Turning to `Cn1cncc1C(=O)N[C@@H](Cc1ccc(F)c(F)c1)C(=O)NCc1ccc2c(N)nccc2c1` [Example 0.69], the IC50 is 10 to 40 µM.

`Nc1nccc2cc(CNC(=O)[C@H](Cc3ccc(F)c(F)c3)NC(=O)c3cc4ccccc4[nH]3)ccc12` [Example 0.85]: the IC50 fell in the range of 10 to 40 µM.

As to `CC(C)n1nnc2cc(C(=O)N[C@@H](Cc3ccc(F)c(F)c3)C(=O)NCc3ccc4c(N)nccc4c3)ccc21` [Example 0.38], the IC50 lay within 10 to 40 µM.

Turning to `CC(C)N1CCC[C@@H]1C(=O)N[C@@H](Cc1ccc(F)c(F)c1)C(=O)NCc1ccc2c(cnn2C)c1` [Example 44.06], the half-maximal inhibitory concentration (IC50) fell in the range of 10 to 40 µM.

Take `CCOCCC(=O)N[C@@H](Cc1ccc(F)c(F)c1)C(=O)NCc1ccc2c(N)nccc2c1` [Example 20.04]: the half-inhibitory concentration (IC50) was in the range of 10 to 40 µM.

With `CC(C)c1cc(C(=O)N[C@@H](Cc2ccc(F)c(F)c2)C(=O)NCc2ccc3c(N)nccc3c2)no1` [Example 0.75], the IC50 lay within 3 to 10 µM.

Regarding `CC(C)n1cc(C(=O)N[C@@H](Cc2ccc(F)c(F)c2)C(=O)NCc2ccc3c(N)nccc3c2)cn1` [Example 0.07], the IC50 was in the range of 10 to 40 µM.

With `CN[C@H](CCc1ccccc1)C(=O)N[C@@H](Cc1ccccc1)C(=O)NCc1ccc2c(N)nccc2c1` [Example 6.08], the concentration for half-maximal inhibition (IC50) is 3 to 10 µM.

Take `C[C@@H]1CC[C@H](C)N1CC(=O)N[C@@H](Cc1ccc(F)c(F)c1)C(=O)NCc1ccc2c(N)nccc2c1` [Example 3.20]: the IC50 was 0.28 to 1 µM.

Take `CCCCOCC(=O)N[C@@H](Cc1ccc(F)c(F)c1)C(=O)NCc1ccc2c(N)nccc2c1` [Example 3.30]: the IC50 lay in the range of 10 to 40 µM.

On to `Nc1nccc2cc(CNC(=O)[C@H](Cc3ccc(F)c(F)c3)NC(=O)c3c[nH]nc3C3CC3)ccc12` [Example 0.61], for which the half-inhibitory concentration (IC50) was in the range of 10 to 40 µM.

In the case of `CC(C)(C)OC(=O)N[C@H](CCc1ccccc1)C(=O)NCC(=O)NCc1ccc2c(N)nccc2c1` [Example 6.01], the IC50 was in the range of 10 to 40 µM.

As for `Nc1nccc2cc(CNC(=O)CNC(=O)[C@@H](CCc3ccccc3)NS(=O)(=O)Cc3ccccc3)ccc12` [Example 18.102], the IC50 is 1 to 3 µM.

Take `Nc1nccc2cc(CNC(=O)[C@H](Cc3ccc(F)c(F)c3)NC(=O)c3ccccc3)ccc12` [Example 0.34]: the concentration for half-maximal inhibition (IC50) is 10 to 40 µM.

On to `CC1CCCC(C)N1CC(=O)N[C@@H](Cc1cccc(F)c1)C(=O)NCc1ccc2c(N)nccc2c1` (stereo partly drawn) [Example 3.04], for which the IC50 fell in the range of 0.1 to 0.279 µM.

Take `Nc1nccc2cc(CNC(=O)[C@H](Cc3ccc(F)c(F)c3)NC(=O)c3ccno3)ccc12` [Example 0.30]: the IC50 was in the range of 10 to 40 µM.

In the case of `Nc1nccc2cc(CNC(=O)[C@H](Cc3ccc(F)c(F)c3)NC(=O)c3cccc(O)n3)ccc12` [Example 0.57], the half-maximal inhibitory concentration (IC50) fell in the range of 1 to 3 µM.

Consider `Nc1nccc2cc(CNC(=O)[C@H](Cc3ccc(F)c(F)c3)NC(=O)CN3CCCCC3=O)ccc12` [Example 3.39], for which the half-maximal inhibitory concentration (IC50) fell in the range of 10 to 40 µM.

For `Nc1nccc2cc(CNC(=O)[C@H](Cc3ccc(F)c(F)c3)NC(=O)CCCOCc3ccccc3)ccc12` [Example 0.24], the IC50 is 10 to 40 µM.

Take `CC(C)N[C@H](CCc1ccccc1)C(=O)N[C@@H](C)C(=O)NCc1ccnc(N)c1` [Example 9.09]: the IC50 fell in the range of 3 to 10 µM.

In the case of `CCCn1ncc(C(=O)N[C@@H](Cc2ccc(F)c(F)c2)C(=O)NCc2ccc3c(N)nccc3c2)c1C` [Example 0.70], the IC50 was 10 to 40 µM.

Regarding `CCC(C)[C@H](C(=O)N[C@@H](Cc1ccc(F)c(F)c1)C(=O)NCc1ccc2c(N)nccc2c1)N(C)C` (stereo partly drawn) [Example 5.101], the IC50 fell in the range of 3 to 10 µM.

`Nc1nccc2cc(CNC(=O)[C@H](Cc3ccc(F)c(F)c3)NC(=O)C3=CCC(=O)NN3)ccc12` [Example 0.44]: the IC50 lay in the range of 3 to 10 µM.
